From patent publication US8216610B2, “Oral paracetamol formulations” (Imaginot Pty Ltd., priority 2004, dated 2012)
Values after ≈ are worked out from the molar mass of the structure shown. Where a name gives a salt, the structure may show the parent alone.

How the values were obtained:
[1] = Solubility in water; type: physicochemical; conditions: on a weight for weight basis; doses of the combination tablet
[2] = cited from earlier work
[3] = cited from earlier work; remark: listed apart in the source

SMILES	volume needed for total dissolution of the dose [1]	dependence of solubility on pH [2]	solubility in water [2]	paracetamol concentration effective for antipyresis ([3]; Rumack et al 1978) [µg/mL]	range of paracetamol plasma concentrations for effective analgesia ([3]; humans, Prescott 1974) [µg/mL]
CC(=O)Nc1ccc(O)cc1 [paracetamol, N-acetyl-p-aminophenol]	around 27 mL	independent of the pH	~14 mg/mL (≈ 92.6 mM)	10 to 20	5 to 20
COc1cccc(C2(O)CCCCC2CN(C)C)c1 (centres unmarked) [tramadol hydrochloride]	around 1 mL	reduced as the pH increases	around 30 mg/mL	–	–
